# Results from patent US7534871B2, “Preparation and use of carbohydrate-based bicyclic ring structures with antimicrobial and cytostatic activity” (Kemin Pharma B.V.B.A., priority 2004, dated 2009).
# Like-named read-outs stand apart in the source and are kept apart here.
# Key:
# [1] = test system: P. aeruginosa ATCC27853 LMG16217; assay: Anti-bacterial activity, Bioscreen C growth curve: P. aeruginosa; assay type: cell-based, Pseudomonas aeruginosa; details: for activity at 25 ppm: Pseudomonas aeruginosa, 35° C., 16 hours, negative control = 100, read-out: % of growth at 25 PPM compared to the negative control, P. aeruginosa ATCC27853 LMG16217
# Protocol: (§1) For the determination of the anti-bacterial and anti-fungal activity the Bioscreen C Analyser Labsystems, Finland, was used. This is an automated reader-incubator. It measures growth continuously by vertical photometry (optical density), processes the data and provides a print out of the results. The area under the growth curve is automatically determined via the Biolink software.
# (§2) The inoculum size of the bacteria is standardized to approximately 5×10^5 CFU/ml.
# (§3) For bacteria, the 100-honey-well plates containing test chemical, Mueller-Hinton broth and inoculum (=sample) are incubated at 35° C. for 16 hours. Also wells without inoculum are incubated (=blanco). Yeasts are incubated 35° C. for 24 hours in RPMI 1640+MOPS buffer at 165 mM. Moulds also in RPMI 1640+MOPS buffer at 165 mM are incubated 25° C. for 5 days. All micro-organisms are screened against a known concentration of the reference antibiotics or antimycotics such as vancomycin, penicillin G, gentamicin or amphotericin B. The growth curve and the area under the growth curve can be determined using the Biolink software; this is illustrated in FIG. 1.
# (§4) The area of the blanco is subtracted from the area of the sample, this number (delta) gives us an indication of the biological activity of the molecules tested and can be expressed as a % of growth at a specific dose compared to a negative control that has a value of 100, illustrated in FIG. 2. Screening of each dose of a specific compound is repeated 5 times. The dose used for all new molecules in all tests is 25 PPM or 25 μg/ml.
# (§5) In Table 4 the results of the anti-bacterial activity is given for the new molecules. The micro-organisms used are Staphylococcus aureus, MRSA, VRE, Enterococcus faecalis, Salmonella typhimurium and Pseudomonas aeruginosa.
# MRSA ATCC33591 = assay: Anti-bacterial activity, Bioscreen C growth curve: MRSA; assay type: cell-based, methicillin-resistant Staphylococcus aureus (MRSA); details: Staphylococcus aureus, ATCC 33591 / LMG10147 / MRSA; 25 PPM; 35° C., 16 hours; negative control = 100; read-out: % of growth at 25 PPM compared to the negative control, MRSA ATCC33591 LMG10147
# Protocol: as §1, §2, §3, §4, §5
# [2] = test system: S. typhimurium ATTC700408; assay: Anti-bacterial activity, Bioscreen C growth curve: S. typhimurium; assay type: cell-based; details: Salmonella enterica, LMG16217 / TYPHIMURIUM, 35° C., 16 hours, negative control = 100, read-out: % of growth at 25 PPM compared to the negative control, S. typhimurium ATTC700408 LMG16217
# Protocol: as §1, §2, §3, §4, §5
# [3] = test system: E. faecalis ATTC29212 LMG 8222; assay: Anti-bacterial activity, Bioscreen C growth curve: E. faecalis; assay type: cell-based; details: Enterococcus faecalis, LMG8222, 35° C., 16 hours, negative control = 100, read-out: % of growth at 25 PPM compared to the negative control, E. faecalis ATTC29212 LMG 8222
# Protocol: as §1, §2, §3, §4, §5
# [4] = test system: Candida albicans IHEM 10284 - ATCC 24433; assay: Anti-fungal activity, Bioscreen C growth curve: Candida albicans (yeast); assay type: cell-based; details: for activity at 25 ppm: Candida albicans, ATCC24433, 35° C., 24 hours, negative control = 100, read-out: % of growth at a dose of 25 PPM compared to the negative control, Candida albicans IHEM 10284 - ATCC 24433
# Protocol: as §1
# The inoculum size of the yeast is standardized to 0.5-2.5×10^3 CFU/ml.
# as §3, §4
# (§6) In Table 5 the anti-fungal activity is given for the new molecules. The micro-organisms used were Candida albicans (a typical yeast) and Microsporum gypseum (a typical mold).
# as §1, with “Also for” for “For”, “the” for “the anti-bacterial and”, “Labsystems Oy, Finland” for “Labsystems, Finland,”, “used.” for “used. This is an automated reader-incubator.”
# (§7) The inoculum size of the yeast is standardized to 0.5-2.5×10^3 CFU/ml. The inoculum size of the mould is standardized to 0.4-5.0×10^4 CFU/ml. Yeasts are incubated 35° C. for 24 hours in RPMI 1640+MOPS buffer at 165 mM. Moulds also in RPMI 1640+MOPS buffer at 165 mM are incubated 25° C. for 5 days.
# (§8) As a control, all micro-organisms are screened against some reference antibiotics with known MIC. Screening of each dose of a specific compound is repeated 5 times.
# [5] = test system: Microsporum gypseum IHEM 3999 - ATCC 14683; assay: Anti-fungal activity, Bioscreen C growth curve: Microsporum gypseum (mold); assay type: cell-based; details: Nannizzia gypsea, ATCC14683, 120 h; 25 PPM; 25° C., 5 days; negative control = 100; read-out: % of growth at a dose of 25 PPM compared to the negative control, Microsporum gypseum IHEM 3999 - ATCC 14683
# Protocol: as §1
# The inoculum size of the mould is standardized to 0.4-5.0×10^4 CFU/ml.
# as §3, §4, §6
# as §1, with “Also for” for “For”, “the” for “the anti-bacterial and”, “Labsystems Oy, Finland” for “Labsystems, Finland,”, “used.” for “used. This is an automated reader-incubator.”
# as §7, §8
# VZV YS = assay: Anti-viral activity: VZV-induced plaque formation in HEL cell cultures, YS strain; assay type: cell-based, varicella zoster virus (VZV); details: Human alphaherpesvirus 3, VZV-induced plaque formation in human embryonic lung HEL cell cultures, 50%
# [6] = test system: human cervix carcinoma cells (HeLa); assay: Cytostatic activity: inhibition of proliferation of HeLa cells; assay type: cell-based; details: 50% inhibitory concentration, cell proliferation
# Protocol: (§9) The compounds were tested for anti-tumor activity via the inhibitory effects on the proliferation of murine leukemia cells (L1210/0), murine mammary carcinoma cells (FM3A), human T-lymphocyte cells (Molt4/C8, CEM/0) and human cervix carcinoma cells (HeLa).
# HIV-2 (ROD) = assay: Anti-viral activity: HIV-2-induced cytopathicity in human CEM cell cultures; assay type: cell-based; details: Human immunodeficiency virus 2, CCRF-CEM; concentration required to inhibit HIV-induced cytopathicity in human CEM cell cultures by 50%
# [7] = test system: human T-lymphocyte cells (Molt4/C8); assay: Cytostatic activity: inhibition of proliferation of Molt4/C8 cells; assay type: cell-based
# Protocol: as §9
# HSV-1 (KOS) = assay: Anti-viral activity: HSV-1-induced cytopathicity in human embryo fibroblast E6SM cell cultures; assay type: cell-based, herpes simplex virus (HSV); details: Human alphaherpesvirus 1, 50%
# [8] = test system: S. aureus ATTC29213 LMG10147; assay: Anti-bacterial activity, Bioscreen C growth curve: S. aureus; assay type: cell-based; details: Staphylococcus aureus, 35° C., 16 hours, negative control = 100, read-out: % of growth at 25 PPM compared to the negative control, S. aureus ATTC29213 LMG10147
# Protocol: as §1, §2, §3, §4, §5
# VV = assay: microbe, parasite or virus in culture; assay type: cell-based; details: Orthopoxvirus vaccinia, E6SM, read-out: EC50 VV (E6SM)
# [9] = Molt4/C8, 50% inhibitory concentration, cell proliferation, read-out: IC50 Molt4/C8
Structure (SMILES),activity at 25 ppm [1],activity at 25 ppm (MRSA ATCC33591),activity at 25 ppm [2],activity at 25 ppm [3],activity at 25 ppm [4],"activity against a yeast, in words ([4]; conclusion in text on Table 5)",activity at 25 ppm [5],EC50 (VZV YS),IC50 [6],EC50 (HIV-2 (ROD)),"IC50 [7, 9]",EC50 (HSV-1 (KOS)),activity at 25 ppm [8],EC50 (VV),"anti-bacterial activity against P. aeruginosa, in words ([1]; conclusion on Table 4)","IC50 ([7]; Molt4/C8, read-out: IC50 Molt4/C8)"
CO[C@@H]1[C@@H](OC)[C@H](c2ccccc2)O[C@@H]2CO[C@@H](c3ccccc3)O[C@@H]12 [KPE00001015],90.4%,117%,87.2%,86%,66.6%,best activity,66%,14 µg/mL,104 ± 65 µg/mL,> 4 µg/mL,62 ± 3 µg/mL,> 80 µg/mL,104%,> 80 µg/mL,–,–
CO[C@@H]1[C@@H](OC)[C@H](Sc2ccccc2)O[C@@H]2COC(=O)CCCC/C=C/CCCCC(=O)O[C@@H]12 [KPE00001016.1],29%,115%,76.4%,76.5%,98.4%,–,74%,22 µg/mL,19 ± 5 µg/mL,> 4 µg/mL,39 ± 1 µg/mL,> 3.2 µg/mL,103%,> 3.2 µg/mL,good anti-bacterial activity,–
CO[C@@H]1[C@@H](OC)[C@H](Sc2ccccc2)O[C@@H]2COC(=O)CCCC/C=C\CCCCC(=O)O[C@@H]12 [KPE00001016.2],79.8%,104%,87%,98.4%,85%,–,58%,> 50 µg/mL,169 ± 44 µg/mL,> 100 µg/mL,78 ± 53 µg/mL,> 3.2 µg/mL,97%,> 3.2 µg/mL,–,–
CO[C@@H]1[C@@H](OC)[C@H](Cc2ccccc2)O[C@@H]2CO[C@@H](c3ccccc3)O[C@@H]12 [KPE00001019],105%,104%,94.3%,104%,98.5%,–,66%,> 5 µg/mL,> 200 µg/mL,> 100 µg/mL,≥ 200 µg/mL,> 80 µg/mL,109%,> 80 µg/mL,–,–
CO[C@@H]1[C@@H](OC)[C@H](Cc2ccccc2)O[C@@H]2COC(=O)CC/C=C/CCC(=O)O[C@@H]12 [KPE00001022],90.9%,110%,94%,96.1%,91.5%,–,67%,> 20 µg/mL,~167 µg/mL,> 20 µg/mL,–,> 80 µg/mL,102%,80 µg/mL,–,69 ± 6 µg/mL
CO[C@@H]1[C@@H](OC)[C@H](Cc2ccccc2)O[C@@H]2COC(=O)CCCCCCCCC=CCCCCCCCCC(=O)O[C@@H]12 [KPE00001031E],89.6%,104%,91.7%,85.5%,88.3%,–,62%,15 µg/mL,> 200 µg/mL,> 20 µg/mL,≥ 200 µg/mL,≥ 400 µg/mL,100%,> 400 µg/mL,–,–
